Laboratory results as given in US9827219B2, “Compositions and methods for lowering levels of high-sensitivity C-reactive protein (HS-CRP) in a subject” (priority 2012, dated 2017).

Tested on: hsCRP
Assay: ANCHOR study, hsCRP (also by statin type and statin efficacy regimen)
Type: in vivo, human
Description: Parameters (a)-(y) can be measured in accordance with any clinically acceptable methodology. For example, triglycerides, total cholesterol, HDL-C and fasting blood sugar can be sample from serum and analyzed using standard photometry techniques. VLDL-TG, LDL-C and VLDL-C can be calculated or determined using serum lipoprotein fractionation by preparative ultracentrifugation and subsequent quantitative analysis by refractometry or by analytic ultracentrifugal methodology. Apo A1, Apo B and hsCRP can be determined from serum using standard nephelometry techniques. Lipoprotein (a) can be determined from serum using standard turbidimetric immunoassay techniques. LDL particle number and particle size can be determined using nuclear magnetic resonance (NMR) spectrometry. Remnants lipoproteins and LDL-phospholipase A2 can be determined from EDTA plasma or serum and serum, respectively, using enzymatic immunoseparation techniques. Oxidized LDL, intercellular adhesion molecule-1 and interleukin-2 levels can be determined from serum using standard enzyme immunoassay techniques. These techniques are described in detail in standard textbooks, for example Tietz Fundamentals of Clinical Chemistry, 6th Ed. (Burtis, Ashwood and Borter Eds.), WB Saunders Company.
A multi-center, placebo-controlled, randomized, double-blind, 12-week study was performed to evaluate the efficacy and safety of >96% E-EPA in patients with fasting triglyceride levels ≧200 mg/dl and <500 mg/dl despite statin therapy (the mean of two qualifying entry values needed to be ≧185 mg/dl and at least one of the values needs to be ≧200 mg/dl). The primary objective of the study was to determine the efficacy of >96% E-EPA 2 g daily and 4 g daily, compared to placebo, in lowering fasting TG levels in patients with high risk for cardiovascular disease and with fasting TG levels ≧200 mg/dL and <500 mg/dL, despite treatment to LDL-C goal on statin therapy.
The population for this study was men and women >18 years of age with a body mass index ≦45 kg/m^2 with fasting TG levels greater than or equal to 200 mg/dl and less than 500 mg/dl and on a stable does of statin therapy (with or without ezetimibe). The statin must have been atorvostatin, rosuvastatin or simvastatin. The dose of statin must have been stable for ≧4 weeks prior to the LDL-C/TG baseline qualifying measurement for randomization. The statin dose was optimal such that the patients are at their LDL-C goal at the LDL-C/TG baseline qualifying measurements. The same statin at the same dose was continued until the study ended.
Approximately 648 patients were randomized at approximately 80 centers in the U.S. The study was a 18- to 20-week, Phase 3, multi-center study consisting of 2 study periods: (1) A 6- to 8-week screening period that included a diet and lifestyle stabilization, a non-statin lipid-altering treatment washout, and an LDL-C and TG qualifying period and (2) A 12-week, double-blind, randomized, placebo-controlled treatment period.
After confirmation of qualifying fasting LDL-C and TG values, eligible patients entered a 12-week, randomized, double-blind treatment period. At Visit 4 (Week 0), patients were randomly assigned to 1 of the following treatment groups: • >96% E-EPA 2 g daily, • >96% E-EPA 4 g daily, or • Placebo.
Approximately 216 patients per treatment group were randomized in this study. Stratification was by type of statin (atorvastatin, rosuvastatin or simvastatin), the presence of diabetes, and gender. […]

## CC/C=C\C/C=C\C/C=C\C/C=C\C/C=C\CCCC(=O)OCC [AMR101, all-cis eicosa-5,8,11,14,17-pentaenoic acid ethyl ester]
ANCHOR ITT, 2 g/day, week 12
  hsCRP end-of-treatment value, median: 2.5 mg/L
ANCHOR ITT, 4 g/day, week 12
  hsCRP change from baseline (median): −2.4%
  hsCRP end-of-treatment value, median: 2.0 mg/L
ANCHOR, atorvastatin, AMR101 2 g/day vs placebo, P 0.6563
  hsCRP median placebo-adjusted % change from baseline: −9.3%
ANCHOR, atorvastatin, AMR101 2 g/day, week 12
  hsCRP change from baseline, median %: 20.1%
ANCHOR, atorvastatin, AMR101 2 g/day, week 12, baseline 1.7
  hsCRP end-of-treatment value, median: 2.3 mg/L
ANCHOR, atorvastatin, AMR101 4 g/day vs placebo, P 0.0475
  hsCRP median placebo-adjusted % change from baseline: −36.7%
ANCHOR, atorvastatin, AMR101 4 g/day, week 12
  hsCRP change from baseline, median %: −11.7%
ANCHOR, atorvastatin, AMR101 4 g/day, week 12, baseline 2.1
  hsCRP end-of-treatment value, median: 1.5 mg/L
ANCHOR, higher-efficacy statin regimen, AMR101 2 g/day vs placebo, P 0.5227
  hsCRP median placebo-adjusted % change from baseline: −8.3%
ANCHOR, higher-efficacy statin regimen, AMR101 2 g/day, week 12
  hsCRP change from baseline, median %: 16.7%
ANCHOR, higher-efficacy statin regimen, AMR101 2 g/day, week 12, baseline 1.7
  hsCRP end-of-treatment value, median: 2.2 mg/L
ANCHOR, higher-efficacy statin regimen, AMR101 4 g/day vs placebo, P 0.0210
  hsCRP median placebo-adjusted % change from baseline: −28.6%
ANCHOR, higher-efficacy statin regimen, AMR101 4 g/day, week 12
  hsCRP change from baseline, median %: 0.0%
ANCHOR, higher-efficacy statin regimen, AMR101 4 g/day, week 12, baseline 2.5
  hsCRP end-of-treatment value, median: 2.0 mg/L
ANCHOR, lower-efficacy statin regimen, AMR101 2 g/day, week 12
  hsCRP change from baseline, median %: 13.3%
ANCHOR, lower-efficacy statin regimen, AMR101 2 g/day, week 12, baseline 1.5
  hsCRP end-of-treatment value, median: 1.7 mg/L
ANCHOR, lower-efficacy statin regimen, AMR101 4 g/day vs placebo, P 0.8843
  hsCRP median placebo-adjusted % change from baseline: 4.0%
ANCHOR, lower-efficacy statin regimen, AMR101 4 g/day, week 12
  hsCRP change from baseline, median %: 11.9%
ANCHOR, lower-efficacy statin regimen, AMR101 4 g/day, week 12, baseline 2.1
  hsCRP end-of-treatment value, median: 2.4 mg/L
ANCHOR, medium-efficacy statin regimen, AMR101 2 g/day vs placebo, P 0.2839
  hsCRP median placebo-adjusted % change from baseline: −8.3%
ANCHOR, medium-efficacy statin regimen, AMR101 2 g/day, week 12
  hsCRP change from baseline, median %: 8.7%
ANCHOR, medium-efficacy statin regimen, AMR101 2 g/day, week 12, baseline 2.3
  hsCRP end-of-treatment value, median: 2.6 mg/L
ANCHOR, medium-efficacy statin regimen, AMR101 4 g/day vs placebo, P 0.0034
  hsCRP median placebo-adjusted % change from baseline: −22.8%
ANCHOR, medium-efficacy statin regimen, AMR101 4 g/day, week 12
  hsCRP change from baseline, median %: −7.7%
ANCHOR, medium-efficacy statin regimen, AMR101 4 g/day, week 12, baseline 2.2
  hsCRP end-of-treatment value, median: 1.8 mg/L
ANCHOR, rosuvastatin, AMR101 2 g/day vs placebo, P 0.3922
  hsCRP median placebo-adjusted % change from baseline: −11.0%
ANCHOR, rosuvastatin, AMR101 2 g/day, week 12
  hsCRP change from baseline, median %: 0.0%
ANCHOR, rosuvastatin, AMR101 2 g/day, week 12, baseline 1.6
  hsCRP end-of-treatment value, median: 2.0 mg/L
ANCHOR, rosuvastatin, AMR101 4 g/day vs placebo, P 0.0217
  hsCRP median placebo-adjusted % change from baseline: −31.4%
ANCHOR, rosuvastatin, AMR101 4 g/day, week 12
  hsCRP change from baseline, median %: −1.2%
ANCHOR, rosuvastatin, AMR101 4 g/day, week 12, baseline 2.6
  hsCRP end-of-treatment value, median: 1.9 mg/L
ANCHOR, simvastatin, AMR101 2 g/day vs placebo, P 0.6562
  hsCRP median placebo-adjusted % change from baseline: −3.8%
ANCHOR, simvastatin, AMR101 2 g/day, week 12
  hsCRP change from baseline, median %: 11.0%
ANCHOR, simvastatin, AMR101 2 g/day, week 12, baseline 2.2
  hsCRP end-of-treatment value, median: 2.7 mg/L
ANCHOR, simvastatin, AMR101 4 g/day vs placebo, P 0.0755
  hsCRP median placebo-adjusted % change from baseline: −13.6%
ANCHOR, simvastatin, AMR101 4 g/day, week 12
  hsCRP change from baseline, median %: 0.0%
ANCHOR, simvastatin, AMR101 4 g/day, week 12, baseline 2.2
  hsCRP end-of-treatment value, median: 2.2 mg/L
ANCHOR, 2 g/day, concomitant atorvastatin
  hsCRP median placebo-adjusted change from baseline: statistically insignificant
ANCHOR, 2 g/day, concomitant rosuvastatin
  hsCRP median placebo-adjusted change from baseline: statistically insignificant
ANCHOR, 2 g/day, concomitant simvastatin
  hsCRP median placebo-adjusted change from baseline: statistically insignificant
ANCHOR, 2 g/day, high-efficacy statin therapy
  hsCRP median placebo-adjusted change from baseline: statistically insignificant
ANCHOR, 2 g/day, low-efficacy statin therapy
  hsCRP median placebo-adjusted change from baseline: statistically insignificant
ANCHOR, 2 g/day, medium-efficacy statin therapy
  hsCRP median placebo-adjusted change from baseline: statistically insignificant
ANCHOR, 4 g/day, concomitant atorvastatin
  hsCRP median placebo-adjusted change from baseline: −36.7%
ANCHOR, 4 g/day, concomitant rosuvastatin
  hsCRP median placebo-adjusted change from baseline: −31.4%
ANCHOR, 4 g/day, concomitant simvastatin
  hsCRP median placebo-adjusted change from baseline: statistically insignificant
ANCHOR, 4 g/day, high-efficacy statin therapy
  hsCRP median placebo-adjusted change from baseline: −28.6%
ANCHOR, 4 g/day, low-efficacy statin therapy (e.g., simvastatin 5-10 mg/day)
  hsCRP median placebo-adjusted change from baseline: statistically insignificant
